Data from patent US6395786B1, “Sleep inducing agent” (Taisho Pharmaceutical Co., Ltd., priority 1998, dated 2002).

Tested on: male rhesus monkeys
Test: Sleep-inducing test by cisternal administration (videotape sleep score)
Format: in vivo
Conditions: 10 μg/monkey, 45 minutes after the administration, FIG. 2
Protocol: [Sleep-inducing Test by Cisternal Administration]
Three male rhesus monkeys weighing 3.6-4.4 kg were individually placed in cages, and the behaviors of the animals were recorded by videotape for an hour before administration of the drug and for 5 hours after administration of the drug. Compound 32 and prostaglandin D2 methyl ester (PGD2) were each dissolved in saline solution and sterilized through a Millipore filter. The drugs were infused cisternally to the monkeys anesthetized with isohalothane inhalation. The doses were 1 μg and 10 μg/0.1 ml/monkey. The same doses of the vehicle were infused cisternally to give a control group. The test was carried out according to the following test schedule.
Week 1: Group treated with vehicle
Week 2: Group treated with 1 μg of Compound 32/monkey
Week 3: Group treated with 10 μg of Compound 32/monkey
Week 4: Group treated with 10 μg of PGD2/monkey
To determine the sleep, the period for which the monkey closed both eyes was measured at intervals of 15 minutes by playing back the recorded videotape, and the results were scored according to the following scales.

For `CCCCC[C@H](O)/C=C/[C@H]1C(=O)C[C@H](O)[C@@H]1C/C=C\CCCC(=O)OC` [prostaglandin D2 methyl ester], the sleep action observed was “transient sleep action”.
